Measurements from ChEMBL document CHEMBL1201862, “PubChem BioAssay data set” (2004).
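Step 1: Grow cells in 96-well plates. Step 2: Expose to compound for 48 hours at 5 concentrations. Step 3: Interpolate endpoints linearly; if unreached, use highest concentration. GI50 marks 50% less growth.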 Calls of active or inactive are those of the source. Rule as the data show it: active = GI50 up to about 1.1 µM and inactive = higher.

Key:
Test in all cases: DTP human tumour cell line panel, 48 h
[1] = test system: SK-MEL-28
[2] = test system: SK-MEL-5
[3] = test system: M14
[4] = test system: HL-60
[5] = test system: HCC 2998
[6] = test system: UACC-62
[7] = test system: SF-539
[8] = test system: 786-0
[9] = test system: HOP-62
[10] = test system: HOP-92
[11] = test system: SF-268
[12] = test system: K562
[13] = test system: CCRF-CEM
[14] = test system: U-251
[15] = test system: A549
[16] = test system: A498
[17] = test system: IGROV-1
[18] = test system: SW-620
[19] = test system: OVCAR-4
[20] = test system: SK-MEL-2

| Compound | GI50 [1] | GI50 [2] | GI50 [3] | GI50 [4] | GI50 [5] | GI50 [6] | GI50 [7] | GI50 [8] | GI50 [9] | GI50 [10] | GI50 [11] | GI50 [12] | GI50 [13] | GI50 [14] | GI50 [15] | GI50 [16] | GI50 [17] | GI50 [18] | GI50 [19] | GI50 [20] |
| --- | --- | --- | --- | --- | --- | --- | --- | --- | --- | --- | --- | --- | --- | --- | --- | --- | --- | --- | --- | --- |
| Cc1ccc(NCC2CC/C(=C\c3ccc(Cl)cc3)C2=O)cc1 (stereo not given) | 15.6 µM (inactive) | 14.5 µM (inactive) | 13.4 µM (inactive) | 2.16 µM (inactive) | 30.6 µM (inactive) | 18.4 µM (inactive) | 23.7 µM (inactive) | 4.12 µM (inactive) | 50 µM (inactive) | 0.569 µM (active) | 18.5 µM (inactive) | 1.74 µM (inactive) | 2.39 µM (inactive) | 17 µM (inactive) | 49.4 µM (inactive) | 30.7 µM (inactive) | 16.6 µM (inactive) | 3.67 µM (inactive) | 24.4 µM (inactive) |  |
| O=C1C(=CNc2ccc([N+](=O)[O-])cc2)C(=O)N(c2ccccc2)C(=O)N1c1ccccc1 |  | > 100 µM (inactive) | 73.1 µM (inactive) |  | > 100 µM (inactive) | 41.3 µM (inactive) |  | > 100 µM (inactive) | > 100 µM (inactive) | > 100 µM (inactive) | > 100 µM (inactive) | > 100 µM (inactive) | > 100 µM (inactive) | > 100 µM (inactive) | > 100 µM (inactive) | > 100 µM (inactive) | > 100 µM (inactive) | > 100 µM (inactive) | > 100 µM (inactive) | 85.7 µM (inactive) |
| C[C@H](CCC1=NCCN1)[C@H]1CC[C@H]2[C@@H]3CC[C@@H]4C[C@H](O)CC[C@]4(C)[C@H]3CC[C@]12C | 2.08 µM (inactive) | 1.63 µM (inactive) | 2.49 µM (inactive) |  | 5.15 µM (inactive) | 2.07 µM (inactive) | 10.3 µM (inactive) | 2.37 µM (inactive) | 3.46 µM (inactive) | 3.3 µM (inactive) | 10.6 µM (inactive) | 2.49 µM (inactive) | 4.08 µM (inactive) | 6.05 µM (inactive) | 8 µM (inactive) | 14.9 µM (inactive) | 8.28 µM (inactive) | 6.84 µM (inactive) | 12.9 µM (inactive) | 4.49 µM (inactive) |
| COc1cc(COC(=O)NC(Cc2cccs2)C(=O)O)c([N+](=O)[O-])cc1OC (stereo not given) | > 100 µM (inactive) | > 100 µM (inactive) | > 100 µM (inactive) | > 100 µM (inactive) | > 100 µM (inactive) | > 100 µM (inactive) | > 100 µM (inactive) | > 100 µM (inactive) | > 100 µM (inactive) | > 100 µM (inactive) | > 100 µM (inactive) | > 100 µM (inactive) | > 100 µM (inactive) | > 100 µM (inactive) | > 100 µM (inactive) | 39.3 µM (inactive) | > 100 µM (inactive) | > 100 µM (inactive) |  |  |
| CCOC(=O)/C1=C(\C)N(c2ccc(C)cc2)C(=O)c2ccccc2C(=O)c2c(OC(C)=O)ccc(OC(C)=O)c21 | < 0.01 µM (active) | 30 µM (inactive) | 18.4 µM (inactive) | 20 µM (inactive) |  | 15 µM (inactive) | 25.8 µM (inactive) | 34.8 µM (inactive) | 18.5 µM (inactive) | 29.9 µM (inactive) | 37.5 µM (inactive) | 16.1 µM (inactive) | 10.8 µM (inactive) | 24.9 µM (inactive) | 26.8 µM (inactive) | 67.1 µM (inactive) | 4.01 µM (inactive) | 34.7 µM (inactive) | 12.8 µM (inactive) | 24 µM (inactive) |
| CN1CCc2c(sc3ncn(N)c(=N)c23)C1 | > 100 µM (inactive) | > 100 µM (inactive) | > 100 µM (inactive) | > 100 µM (inactive) |  | > 100 µM (inactive) | > 100 µM (inactive) | > 100 µM (inactive) | > 100 µM (inactive) | > 100 µM (inactive) | > 100 µM (inactive) | > 100 µM (inactive) | 36.1 µM (inactive) | > 100 µM (inactive) | > 100 µM (inactive) | > 100 µM (inactive) | > 100 µM (inactive) | > 100 µM (inactive) | > 100 µM (inactive) | 61.2 µM (inactive) |
| C/C(=N/NC(=O)c1ccccc1O)c1ccc(/C(C)=N\NC(=O)c2ccccc2O)c2nc3cc(C)c(C)cc3nc12 | > 100 µM (inactive) | > 100 µM (inactive) | > 100 µM (inactive) |  | > 100 µM (inactive) | > 100 µM (inactive) | > 100 µM (inactive) | > 100 µM (inactive) | > 100 µM (inactive) | 54.7 µM (inactive) | > 100 µM (inactive) | > 100 µM (inactive) | > 100 µM (inactive) | > 100 µM (inactive) | > 100 µM (inactive) | > 100 µM (inactive) | > 100 µM (inactive) | > 100 µM (inactive) | > 100 µM (inactive) | > 100 µM (inactive) |
